Laboratory results taken from patent publication US20220322673A1, “Novel Agrochemical Combinations” (UPL LIMITED, priority 2019, published 2022).
Like-named read-outs stand apart in the source and are kept apart here.

Assays:
Assay type in all cases: in vivo
Okra Aphids = experiment: Trials of Flonicamid and Orthosilicic acid on controlling Okra Aphids (Example 1); details: doses gm/ha: OSA + Flonicamid 625 + 50, Flonicamid 75, OSA 1250
Experimental: Trials were conducted to test the efficacy of the combination of Flonicamid and Orthosilicic acid on controlling Okra Aphids at different dosages.

[1] = system: Okra Aphids (Aphis gossypii); details: for Percent control (%) of Okra Aphids, Nymphs + Adults, A01: A01 = 1 day after first spray; for Percent control (%) of Okra Aphids, Nymphs + Adults, B03: B03 = 3 days after 2nd spray; for Percent control (%) of Okra Aphids, Nymphs + Adults, B07: B07 (after 2nd spray); for Percent control (%) of Okra Aphids, Nymphs + Adults, B10: B10 (after 2nd spray); for Percent control (%) of Okra Aphids, Nymphs + Adults, C03: C03 = 3 days after third spray; for Percent control (%) of Okra Aphids, Nymphs + Adults, C10: C10 (after third spray)
From the text: (§1) In this evaluation, feeding damage & insect population on Okra Leaves before and after sprays is averaged and analyzed for the test of significance. Application method: Three applications (application A, B and C) within an interval of 14 days.

[2] = system: Okra Jassids (Amrasca bigutulla bigutulla); details: for Percent control (%) of Okra Jassids, Nymphs + Adults, A01: A01 = 1 day after first spray; for Percent control (%) of Okra Jassids, Nymphs + Adults, A10: A10 (after 1st spray); for Percent control (%) of Okra Jassids, Nymphs + Adults, B03: B03 = 3 days after 2nd spray; for Percent control (%) of Okra Jassids, Nymphs + Adults, B07: B07 (after 2nd spray); for Percent control (%) of Okra Jassids, Nymphs + Adults, B10: B10 (after 2nd spray); for Percent control (%) of Okra Jassids, Nymphs + Adults, B14: B14 (after 2nd spray); for Percent control (%) of Okra Jassids, Nymphs + Adults, C03: C03 = 3 days after third spray; for Percent control (%) of Okra Jassids, Nymphs + Adults, C10: C10 (after third spray)
From the text: as §1

Okra Mites = experiment: Trials on controlling Okra Mites post 2nd and 3rd application (Example 2); details: doses gm/ha: OSA 625 + Flonicamid 50 / Acetamipirid 50 / Lancer Gold 650, solo OSA 1250, Flonicamid 75, Acetamipirid 50, Lancer gold 650
Experimental: Trials were conducted to test the efficacy of the combination of Flonicamid and Orthosilicic acid on controlling Okra Mites at different dosages post 2nd and 3rd application.

[3] = system: Corn FAW (Spodoptera frugiperda); details: for Percent control (%) A01: A01 = 1 day after first spray; for Percent control (%) A14: A14 = 14 days after 1st spray; for Percent control (%) B03: B03 = 3 days after 2nd spray; for Percent control (%) B07: B07 (after 2nd spray); for Percent control (%) B10: B10 (after 2nd spray); for Percent control (%) B21: B21 (after 2nd spray)
From the text: Application method: Two applications (application A and B) within an interval of 14 days. A01=1 day after first spray, A14=14 days after 1st spray, B03=3 days after 2nd spray.

[4] = doses gm a.i./ha: OSA 25, Flonicamid 100, Acephate+Imidacloprid 520, Flonicamid+Fipronil 100+50, Imidacloprid 24.5, Acetamiprid 15
[5] = reduced insecticide dose, gm a.i./ha: OSA 25, Flonicamid (Ulala) 75, Acephate+Imidacloprid 390, Flonicamid+Fipronil 75+37.5, Imidacloprid 18.3, Acetamiprid 11.2
[6] = 25% reduced dose rate, gm a.i./ha: OSA 25, Flonicamid 75, Acephate+Imidacloprid 390, Flonicamid+Fipronil 75+37.5, Imidacloprid 18.3, Acetamiprid 11.2
[7] = 25% reduced dose of insecticide, gm a.i./ha: OSA 25, CTPR 22.5, Acephate 730, Novaluron 56, Novaluron+Lambda cyhalothrin 67.5, Novaluron+Emamectin 93.5
[8] = doses gm a.i./ha: OSA 25, CTPR 30, Acephate 970, Novaluron 75, Novaluron+Lambda cyhalothrin 90, Novaluron+Emamectin 125

orthosilicic acid [OSA]
Percent control B01 (Okra Aphids; B01): 29.6% | Percent control C-01 (Okra Aphids; C-01): 23.3% | Percent control C-10 (Okra Aphids; C-10): 26.7% | Percent control Mean (Okra Aphids; Mean of B01, C-01, C-10): 26.53% | Percent control (%) of Okra Aphids, Nymphs + Adults, A01 [1, 4]: 32.3% | Percent control (%) of Okra Aphids, Nymphs + Adults, A01 [1, 5]: 30.2% | Percent control (%) of Okra Aphids, Nymphs + Adults, A10 ([1]; A10 (after 1st spray), doses gm a.i./ha: OSA 25, Flonicamid 100, Acephate+Imidacloprid 520, Flonicamid+Fipronil 100+50, Imidacloprid 24.5, Acetamiprid 15): 48.5% | Percent control (%) of Okra Aphids, Nymphs + Adults, A14 ([1]; A14 = 14 days after 1st spray, reduced insecticide dose, gm a.i./ha: OSA 25, Flonicamid (Ulala) 75, Acephate+Imidacloprid 390, Flonicamid+Fipronil 75+37.5, Imidacloprid 18.3, Acetamiprid 11.2): 47% | Percent control (%) of Okra Aphids, Nymphs + Adults, B03 [1, 4]: 52% | Percent control (%) of Okra Aphids, Nymphs + Adults, B03 [1, 5]: 55% | Percent control (%) of Okra Aphids, Nymphs + Adults, B07 [1, 4]: 56% | Percent control (%) of Okra Aphids, Nymphs + Adults, B07 [1, 5]: 57.7% | Percent control (%) of Okra Aphids, Nymphs + Adults, B10 [1, 4]: 56.1% | Percent control (%) of Okra Aphids, Nymphs + Adults, B10 [1, 5]: 55.7% | Percent control (%) of Okra Aphids, Nymphs + Adults, C03 [1, 4]: 57% | Percent control (%) of Okra Aphids, Nymphs + Adults, C03 [1, 5]: 59.4% | Percent control (%) of Okra Aphids, Nymphs + Adults, C10 [1, 4]: 59.7% | Percent control (%) of Okra Aphids, Nymphs + Adults, C10 [1, 5]: 60.3% | Percent control (%) of Okra Jassids, Nymphs + Adults, A01 [2, 6]: 27.9% | Percent control (%) of Okra Jassids, Nymphs + Adults, A01 [2, 4]: 25.3% | Percent control (%) of Okra Jassids, Nymphs + Adults, A10 [2, 6]: 37% | Percent control (%) of Okra Jassids, Nymphs + Adults, A10 [2, 4]: 35.8% | Percent control (%) of Okra Jassids, Nymphs + Adults, B03 [2, 6]: 40.9% | Percent control (%) of Okra Jassids, Nymphs + Adults, B03 [2, 4]: 42.7% | Percent control (%) of Okra Jassids, Nymphs + Adults, B07 [2, 6]: 47.9% | Percent control (%) of Okra Jassids, Nymphs + Adults, B07 [2, 4]: 46.5% | Percent control (%) of Okra Jassids, Nymphs + Adults, B10 [2, 6]: 48.6% | Percent control (%) of Okra Jassids, Nymphs + Adults, B10 [2, 4]: 45.5% | Percent control (%) of Okra Jassids, Nymphs + Adults, B14 [2, 6]: 43% | Percent control (%) of Okra Jassids, Nymphs + Adults, B14 [2, 4]: 44.7% | Percent control (%) of Okra Jassids, Nymphs + Adults, C03 [2, 6]: 45.5% | Percent control (%) of Okra Jassids, Nymphs + Adults, C03 [2, 4]: 46.9% | Percent control (%) of Okra Jassids, Nymphs + Adults, C10 [2, 6]: 49.1% | Percent control (%) of Okra Jassids, Nymphs + Adults, C10 [2, 4]: 48.6% | Percent control B07 (Okra Mites; B07): 10% | Percent control C-01 (Okra Mites; C-01): 19.3% | Percent control C-10 (Okra Mites; C-10): 11.7% | Percent control Mean (Okra Mites; Mean of B07, C-01, C-10): 13.66% | Percent control (%) A01 [3, 7]: 29.3% | Percent control (%) A01 [3, 8]: 32.4% | Percent control (%) A14 [3, 7]: 44.8% | Percent control (%) A14 [3, 8]: 47.4% | Percent control (%) B03 [3, 7]: 51.9% | Percent control (%) B03 [3, 8]: 53.7% | Percent control (%) B07 [3, 7]: 61.4% | Percent control (%) B07 [3, 8]: 58.6% | Percent control (%) B10 [3, 7]: 57.9% | Percent control (%) B10 [3, 8]: 60.6% | Percent control (%) B21 [3, 7]: 56.5% | Percent control (%) B21 [3, 8]: 59.0%
